We go through twelve compounds from US6452028B1, “Vitamin D3 analogs” (Hoffmann-La Roche Inc., priority 1996, dated 2002).

A word on the IC50: it is the point on the concentration scale where inhibition reaches its midpoint.

The test system of one assay is HL-60 cells. Nature of the assay: HL-60 cell differentiation (NBT reduction). The class given is cell-based. The note with it: concentration leading to 50% of maximal differentiation achieved with 100-1000 nM calcitriol, 3 days, read-out: ED50 (the source's name). How it is done: HL-60 Cell Differentiation
The induction of differentiation of HL-60 cells was assayed by measuring their oxidative burst potential via the reduction of nitrobluetetrazolium (NBT).
HL-60 cells (30,000 cells/90 μl of RPMI/supplemented medium) were seeded into flat-bottomed microtiter wells. Immediately after seeding, 10 μl of test compounds diluted in supplemented RPMI medium were added to the wells at the same time to yield final concentrations between 10^−11 and 10^−6 M (starting from stock solutions of 10^−2 M in ethanol stored at −20° C. and protected from light).

A further assay has as its system HaCaT cell line. The assay can be described thus: Inhibition of keratinocyte proliferation (3H-thymidine uptake). The note with it: 3H-thymidine incorporation after 6 days of culture in presence of the test compound. Format: cell-based, human.
Assay [1] concerns MCF-7 breast carcinoma cells. The assay can be described thus: Antiproliferative activity in MCF-7 breast carcinoma cells (MTT). Format: cell-based. The note with it: inhibition of cell growth, day 3 to 7 post drug addition, Reed and Muench formula.
For assay [2], the system named is T47-D breast carcinoma cells. The assay can be described thus: Antiproliferative activity in T47-D breast carcinoma cells (MTT). The note with it: inhibition of cell growth, day 3 to 7 post drug addition, Reed and Muench formula. The class given is cell-based.

For the compound “1,25-Dihydroxy-16,23Z-diene-26,27-hexafluoro-20-epi-19-nor-cholecalciferol”, the EC50 in the assay on HL-60 cells is 4.5 nM.

On to `C=C1C(=CC=C2CCCC3(C)C(C(C)C/C=C\C(O)(C(F)(F)F)C(F)(F)F)=CCC23)CC(O)CC1O` (stereo not drawn) [1,25-Dihydroxy-16,23Z-diene-26,27-hexafluoro-20-epi-cholecalciferol], for which the EC50 with HL-60 cells was 2.3 nM. With `C=C1C(=CC=C2CCCC3(C)C(C(C)CCCC(C)(C)O)=CCC23)CC(O)CC1O` (stereo not drawn) [1,25-Dihydroxy-16-ene-20-epi-cholecalciferol], the EC50 with HL-60 cells was found to be 2.5 nM. For the same compound, the half-inhibitory concentration (IC50) in the assay with HaCaT cell line is 4 nM. On to `C=C1C(=CC=C2CCCC3(C)C(C(C)CC#CC(C)(C)O)=CCC23)CC(O)CC1O` (stereo not drawn) [1,25-Dihydroxy-16-ene-23-yne-20-epi-cholecalciferol], for which the EC50 with HL-60 cells was determined as 15 nM. Moreover, the IC50 in the assay with HaCaT cell line was 93 nM. Take `CCC(O)(C#CCC(C)C1=CCC2C(=CC=C3CC(O)CC(O)C3)CCCC12C)CC` (stereo not drawn) [1,25-Dihydroxy-16-ene-23-yne-26,27-bishomo-19-nor-20-epi-cholecalciferol]: in assay [1], the 50% inhibitory concentration (IC50) was 12 nM. Still for that read-out and setting: next, `C=C1/C(=C\C=C2/CCC[C@]3(C)C([C@@H](C)CC#CC(O)(CC)CC)=CC[C@@H]23)C[C@@H](O)C[C@@H]1O` [1,25-Dihydroxy-16-ene-23-yne-26,27-bishomo-20-epi-chole-calciferol]: 11 nM. For the compound `C=C1/C(=C\C=C2/CCC[C@]3(C)C([C@@H](C)CC#CC(O)(C(F)(F)F)C(F)(F)F)=CC[C@@H]23)C[C@@H](O)C[C@@H]1O` [1,25-Dihydroxy-16-ene-23-yne-26,27-hexafluoro-20-epi-cholecalciferol], the EC50 in the assay on HL-60 cells was determined as 2 nM. For the same compound, the concentration for half-maximal inhibition (IC50) in assay [2] stood at 6.7 nM; in assay [1], 0.95 nM; in the assay with HaCaT cell line it was 50 nM.

On to `C=C1/C(=C\C=C2/CCC[C@]3(C)[C@@H]([C@H](C)CCCC(C)(C)O)CC[C@@H]23)C[C@@H](O)C[C@@H]1O` [1,25-Dihydroxy-cholecalciferol, reference compound], for which the half-inhibitory concentration (IC50) with HaCaT cell line (Homo sapiens, HaCaT) worked out at 55 nM. In the case of `C=C1/C(=C\C=C2/CCC[C@]3(C)C([C@@H](C)C/C=C/C(O)(C(F)(F)F)C(F)(F)F)=CC[C@@H]23)C[C@@H](O)C[C@@H]1F` [1α-Fluoro-25-hydroxy-16,23E-diene-26,27-hexafluoro-20-epi-cholecalciferol], the IC50 in assay [1] was 9 nM.

Turning to `C=C1C(=CC=C2CCCC3(C)C(C(C)C/C=C\C(O)(C(F)(F)F)C(F)(F)F)=CCC23)CC(O)CC1F` (stereo not drawn) [1α-Fluoro-25-hydroxy-16,23Z-diene-26,27-hexafluoro-20-epi-cholecalciferol], in the assay with HL-60 cells, the EC50 turned out to be 20 nM. The compound `C=C1/C(=C\C=C2/CCC[C@]3(C)C([C@@H](C)C/C=C/C(O)(CC)CC)=CC[C@@H]23)C[C@@H](O)C[C@@H]1F` [1α-Fluoro-25-hydroxy-16-23E-diene-26,27-bishomo-20-epi-cholecalciferol] returned a half-inhibitory concentration (IC50) in assay [1] of 30 nM.

`C=C1C(=CC=C2CCCC3(C)C(C(C)CC#CC(O)(C(F)(F)F)C(F)(F)F)=CCC23)CC(O)CC1F` (stereo not drawn) [1α-Fluoro-25-hydroxy-16-ene-23-yne-26,27-hexafluoro-20-epicholecalciferol] had a 50% inhibitory concentration (IC50) in assay [1] of 11 nM.
